Reference: the NIST ThermoML archive (doi:10.1016/j.jct.2009.05.004)
Numbers after ± are expanded uncertainties.

Assay: mn = molality of the nth substance listed, in mol/kg
Conditions: Liquid, Vibrating tube method

[Br-].[Br-].[Zn+2] [zinc bromide] + CCO
mass density (298.15 K, 39998 kPa, m1 = 0.1696): 842.43 ± 0.69 kg/m3 | mass density (298.16 K, 5021 kPa, m1 = 1.887): 1058.5 ± 0.62 kg/m3 | mass density (298.16 K, 15032 kPa, m1 = 0.05681): 807.29 ± 0.65 kg/m3 | mass density (298.16 K, 15201 kPa, m1 = 0.9305): 937 ± 0.62 kg/m3 | mass density (298.16 K, 15612 kPa, m1 = 0.1696): 825.53 ± 0.65 kg/m3 | mass density (298.16 K, 15624 kPa, m1 = 0.3043): 845.7 ± 0.64 kg/m3 | mass density (298.16 K, 20014 kPa, m1 = 0.4384): 869.08 ± 0.64 kg/m3 | mass density (298.16 K, 29932 kPa, m1 = 0.3043): 856.21 ± 0.66 kg/m3 | mass density (298.16 K, 34951 kPa, m1 = 0.1696): 839.25 ± 0.68 kg/m3 | mass density (298.16 K, 35026 kPa, m1 = 1.887): 1081.92 ± 0.64 kg/m3 | mass density (298.17 K, 5457 kPa, m1 = 0.3043): 837.46 ± 0.63 kg/m3 | mass density (298.17 K, 25045 kPa, m1 = 0.05681): 814.8 ± 0.67 kg/m3 | mass density (298.17 K, 25140 kPa, m1 = 1.887): 1074.74 ± 0.63 kg/m3 | mass density (298.17 K, 25416 kPa, m1 = 0.1696): 832.79 ± 0.66 kg/m3 | mass density (298.17 K, 35024 kPa, m1 = 0.9305): 951.54 ± 0.63 kg/m3 | mass density (298.17 K, 39854 kPa, m1 = 0.3043): 862.75 ± 0.68 kg/m3 | mass density (313.11 K, 20023 kPa, m1 = 0.1696): 817.08 ± 0.66 kg/m3 | mass density (313.11 K, 39787 kPa, m1 = 1.887): 1072.61 ± 0.63 kg/m3 | mass density (313.12 K, 29927 kPa, m1 = 1.887): 1065.27 ± 0.63 kg/m3 | mass density (313.12 K, 34843 kPa, m1 = 1.887): 1069.01 ± 0.63 kg/m3 | mass density (313.12 K, 39907 kPa, m1 = 0.1696): 831.46 ± 0.7 kg/m3 | mass density (313.13 K, 4920 kPa, m1 = 0.4384): 843.98 ± 0.63 kg/m3 | mass density (313.13 K, 14572 kPa, m1 = 0.1696): 812.62 ± 0.65 kg/m3 | mass density (313.13 K, 24931 kPa, m1 = 0.1696): 820.9 ± 0.67 kg/m3 | mass density (313.13 K, 25016 kPa, m1 = 1.887): 1061.4 ± 0.62 kg/m3 | mass density (313.13 K, 35021 kPa, m1 = 0.05681): 810.73 ± 0.7 kg/m3 | mass density (313.14 K, 5014 kPa, m1 = 0.05681): 786.55 ± 0.64 kg/m3 | mass density (313.14 K, 5102 kPa, m1 = 0.3043): 824.32 ± 0.63 kg/m3 | mass density (313.14 K, 9947 kPa, m1 = 0.9305): 919.42 ± 0.62 kg/m3 | mass density (313.14 K, 29730 kPa, m1 = 0.4384): 864.47 ± 0.66 kg/m3 | mass density (313.14 K, 34690 kPa, m1 = 0.4384): 868 ± 0.66 kg/m3 | mass density (313.14 K, 39625 kPa, m1 = 0.3043): 851.54 ± 0.68 kg/m3 | mass density (313.15 K, 1265 kPa, m1 = 0.05681): 783.06 ± 0.63 kg/m3 | mass density (313.15 K, 1326 kPa, m1 = 0.3043): 820.84 ± 0.63 kg/m3 | mass density (313.15 K, 1425 kPa, m1 = 1.49): 988.5 ± 0.62 kg/m3 | mass density (313.15 K, 5027 kPa, m1 = 1.49): 991.85 ± 0.62 kg/m3 | mass density (313.15 K, 9994 kPa, m1 = 1.887): 1048.64 ± 0.62 kg/m3 | mass density (313.15 K, 10024 kPa, m1 = 0.05681): 791.06 ± 0.65 kg/m3 | mass density (313.15 K, 10245 kPa, m1 = 0.3043): 828.9 ± 0.64 kg/m3 | mass density (313.15 K, 10627 kPa, m1 = 1.49): 996.89 ± 0.62 kg/m3 | mass density (313.15 K, 15329 kPa, m1 = 1.49): 1000.98 ± 0.62 kg/m3 | mass density (313.15 K, 19809 kPa, m1 = 0.9305): 927.83 ± 0.63 kg/m3 | mass density (313.15 K, 19932 kPa, m1 = 0.4384): 856.94 ± 0.64 kg/m3 | mass density (313.15 K, 20014 kPa, m1 = 0.3043): 837.09 ± 0.65 kg/m3 | mass density (313.15 K, 20065 kPa, m1 = 0.05681): 799.53 ± 0.67 kg/m3 | mass density (313.15 K, 20324 kPa, m1 = 1.49): 1005.17 ± 0.62 kg/m3 | mass density (313.15 K, 24735 kPa, m1 = 0.4384): 860.72 ± 0.65 kg/m3 | mass density (313.15 K, 25035 kPa, m1 = 0.9305): 932.01 ± 0.63 kg/m3 | mass density (313.15 K, 25647 kPa, m1 = 1.49): 1009.46 ± 0.62 kg/m3 | mass density (313.15 K, 29901 kPa, m1 = 0.9305): 935.73 ± 0.63 kg/m3 | mass density (313.15 K, 29925 kPa, m1 = 0.1696): 824.61 ± 0.68 kg/m3 | mass density (313.15 K, 29954 kPa, m1 = 1.49): 1012.81 ± 0.62 kg/m3 | mass density (313.15 K, 29964 kPa, m1 = 0.05681): 807.13 ± 0.69 kg/m3 | mass density (313.15 K, 34524 kPa, m1 = 0.3043): 848.04 ± 0.67 kg/m3 | mass density (313.15 K, 34627 kPa, m1 = 1.49): 1016.31 ± 0.62 kg/m3 | mass density (313.15 K, 34851 kPa, m1 = 0.1696): 828.08 ± 0.69 kg/m3 | mass density (313.15 K, 39846 kPa, m1 = 1.49): 1020.06 ± 0.62 kg/m3 | mass density (313.15 K, 39878 kPa, m1 = 0.9305): 942.83 ± 0.63 kg/m3 | mass density (313.15 K, 39881 kPa, m1 = 0.4384): 871.49 ± 0.67 kg/m3 | mass density (313.15 K, 39914 kPa, m1 = 0.05681): 814.03 ± 0.72 kg/m3 | mass density (313.16 K, 1622 kPa, m1 = 0.4384): 840.91 ± 0.62 kg/m3 | mass density (313.16 K, 9861 kPa, m1 = 0.4384): 848.44 ± 0.63 kg/m3 | mass density (313.16 K, 14924 kPa, m1 = 0.4384): 852.81 ± 0.64 kg/m3 | mass density (313.16 K, 15002 kPa, m1 = 0.9305): 923.82 ± 0.62 kg/m3 | mass density (313.16 K, 15021 kPa, m1 = 0.05681): 795.37 ± 0.66 kg/m3 | mass density (313.16 K, 15032 kPa, m1 = 0.3043): 833 ± 0.64 kg/m3 | mass density (313.16 K, 29952 kPa, m1 = 0.3043): 844.75 ± 0.67 kg/m3 | mass density (313.16 K, 34974 kPa, m1 = 0.9305): 939.43 ± 0.63 kg/m3 | mass density (313.17 K, 10022 kPa, m1 = 0.1696): 808.74 ± 0.64 kg/m3 | mass density (313.17 K, 15110 kPa, m1 = 1.887): 1053.14 ± 0.62 kg/m3 | mass density (313.17 K, 20144 kPa, m1 = 1.887): 1057.41 ± 0.62 kg/m3 | mass density (313.17 K, 25481 kPa, m1 = 0.05681): 803.78 ± 0.68 kg/m3 | mass density (313.17 K, 25921 kPa, m1 = 0.3043): 841.73 ± 0.66 kg/m3 | mass density (313.18 K, 4967 kPa, m1 = 0.9305): 914.91 ± 0.62 kg/m3 | mass density (313.19 K, 1520 kPa, m1 = 0.9305): 911.69 ± 0.62 kg/m3 | mass density (313.19 K, 5004 kPa, m1 = 1.887): 1044.1 ± 0.62 kg/m3 | mass density (313.2 K, 1456 kPa, m1 = 0.1696): 801 ± 0.63 kg/m3 | mass density (313.2 K, 4848 kPa, m1 = 0.1696): 804.13 ± 0.63 kg/m3 | mass density (313.24 K, 1850 kPa, m1 = 1.887): 1041.15 ± 0.62 kg/m3 | mass density (333.12 K, 1327 kPa, m1 = 0.1696): 782.58 ± 0.63 kg/m3 | mass density (333.12 K, 1898 kPa, m1 = 0.9305): 892.88 ± 0.62 kg/m3 | mass density (333.12 K, 4943 kPa, m1 = 1.887): 1024.22 ± 0.62 kg/m3 | mass density (333.12 K, 9762 kPa, m1 = 0.4384): 830.56 ± 0.63 kg/m3 | mass density (333.12 K, 19882 kPa, m1 = 0.4384): 840.07 ± 0.65 kg/m3 | mass density (333.12 K, 39840 kPa, m1 = 1.887): 1055.35 ± 0.63 kg/m3 | mass density (333.13 K, 5145 kPa, m1 = 0.05681): 769.04 ± 0.64 kg/m3 | mass density (333.13 K, 24749 kPa, m1 = 0.4384): 844.29 ± 0.66 kg/m3 | mass density (333.13 K, 29989 kPa, m1 = 0.9305): 919.06 ± 0.63 kg/m3 | mass density (333.13 K, 34942 kPa, m1 = 0.9305): 922.93 ± 0.63 kg/m3 | mass density (333.14 K, 5187 kPa, m1 = 0.4384): 825.95 ± 0.63 kg/m3 | mass density (333.14 K, 19787 kPa, m1 = 0.9305): 910.38 ± 0.63 kg/m3 | mass density (333.14 K, 20014 kPa, m1 = 0.3043): 820.51 ± 0.66 kg/m3 | mass density (333.14 K, 25451 kPa, m1 = 0.05681): 788.08 ± 0.69 kg/m3 | mass density (333.14 K, 34776 kPa, m1 = 1.887): 1051.46 ± 0.62 kg/m3 | mass density (333.15 K, 1541 kPa, m1 = 0.05681): 765.27 ± 0.63 kg/m3 | mass density (333.15 K, 1627 kPa, m1 = 0.3043): 802.62 ± 0.63 kg/m3 | mass density (333.15 K, 1698 kPa, m1 = 1.49): 969.07 ± 0.62 kg/m3 | mass density (333.15 K, 4776 kPa, m1 = 0.1696): 786.15 ± 0.63 kg/m3 | mass density (333.15 K, 5045 kPa, m1 = 1.49): 972.54 ± 0.62 kg/m3 | mass density (333.15 K, 5098 kPa, m1 = 0.9305): 896.23 ± 0.62 kg/m3 | mass density (333.15 K, 10025 kPa, m1 = 0.05681): 773.96 ± 0.65 kg/m3 | mass density (333.15 K, 10027 kPa, m1 = 0.9305): 901.19 ± 0.62 kg/m3 | mass density (333.15 K, 10046 kPa, m1 = 1.887): 1029.4 ± 0.62 kg/m3 | mass density (333.15 K, 10624 kPa, m1 = 1.49): 978.11 ± 0.62 kg/m3 | mass density (333.15 K, 15214 kPa, m1 = 1.887): 1034.43 ± 0.62 kg/m3 | mass density (333.15 K, 15326 kPa, m1 = 1.49): 982.61 ± 0.62 kg/m3 | mass density (333.15 K, 15924 kPa, m1 = 0.3043): 816.79 ± 0.65 kg/m3 | mass density (333.15 K, 19921 kPa, m1 = 0.05681): 783.27 ± 0.67 kg/m3 | mass density (333.15 K, 19984 kPa, m1 = 1.49): 986.89 ± 0.62 kg/m3 | mass density (333.15 K, 24658 kPa, m1 = 1.49): 991.01 ± 0.62 kg/m3
